Results taken from patent US20250368649A1, “TETRAHYDROPYRIDOPYRIMIDINE PAN-KRAS INHIBITORS” (Mirati Therapeutics, Inc., priority 2022, published 2025).

Assays:
[1] = test system: H460 cells; assay: Inhibition of KRas-mediated phosphorylation of ERK (Cisbio HTRF pERK), H460 cells; type: cell-based; conditions: Homo sapiens; for inhibition at 0.1 µM: NCI-H460, single point at 100 nM, 3 hrs compound incubation; for IC50: NCI-H460, 3 h, 3 hr compound incubation
[2] = test system: H358 cells; assay: Inhibition of KRas-mediated phosphorylation of ERK (Cisbio HTRF pERK), H358 cells; type: cell-based; conditions: Homo sapiens; for inhibition at 0.1 µM: NCI-H358, single point at 100 nM, 3 hrs compound incubation
[3] = target: KRas G12V (Homo sapiens, UniProt P01116, G12V); assay: biochemical; conditions: Binding to KRas (IC50 nM) G12V
Chain of KRas G12V (P01116 1-169 isoform P01116-2 G12V): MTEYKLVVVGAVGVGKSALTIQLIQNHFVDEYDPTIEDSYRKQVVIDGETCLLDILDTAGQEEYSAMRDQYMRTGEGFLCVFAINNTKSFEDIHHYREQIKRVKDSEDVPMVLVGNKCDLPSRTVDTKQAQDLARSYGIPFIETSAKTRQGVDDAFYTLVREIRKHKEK

[4] = test system: H727 cells; assay: Inhibition of KRas-mediated phosphorylation of ERK (Cisbio HTRF pERK), H727 cells; type: cell-based; conditions: Homo sapiens; for IC50: NCI-H727, 3 h, 3 hr compound incubation; for inhibition at 0.1 µM: NCI-H727, single point at 100 nM, 3 hrs compound incubation
[5] = target: KRas G12R (Homo sapiens, UniProt P01116, G12R); assay: biochemical; conditions: Binding to KRas (IC50 nM) G12R
Chain of KRas G12R (P01116 1-169 isoform P01116-2 G12R): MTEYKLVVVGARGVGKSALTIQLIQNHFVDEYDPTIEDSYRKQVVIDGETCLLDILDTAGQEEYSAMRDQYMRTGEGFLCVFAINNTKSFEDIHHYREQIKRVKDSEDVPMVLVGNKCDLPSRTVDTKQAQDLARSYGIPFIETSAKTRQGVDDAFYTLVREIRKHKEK

[6] = test system: ASPC1 cells; assay: Inhibition of KRas-mediated phosphorylation of ERK (Cisbio HTRF pERK), ASPC1 cells; type: cell-based; conditions: Homo sapiens, AsPC-1 cells; for IC50: ASPC1, 3 h, 3 hr compound incubation; for inhibition at 0.1 µM: ASPC1, single point at 100 nM, 3 hrs compound incubation
[7] = test system: HCT116 cells; assay: Inhibition of KRas-mediated phosphorylation of ERK (Cisbio HTRF pERK), HCT116 cells; type: cell-based; conditions: Homo sapiens; for inhibition at 0.1 µM: HCT-116, single point at 100 nM, 3 hrs compound incubation; for IC50: HCT-116, 3 h, 3 hr compound incubation
[8] = target: KRas G12D (Homo sapiens, UniProt P01116, G12D); assay: biochemical; conditions: Binding to KRas (IC50 nM) G12D
Chain of KRas G12D (P01116 1-169 isoform P01116-2 G12D): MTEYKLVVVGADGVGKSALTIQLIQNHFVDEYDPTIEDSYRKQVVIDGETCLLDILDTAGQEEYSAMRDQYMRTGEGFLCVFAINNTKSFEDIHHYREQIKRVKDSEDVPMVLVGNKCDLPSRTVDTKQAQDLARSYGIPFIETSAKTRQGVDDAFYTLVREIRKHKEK

[9] = test system: A549 cells; assay: Inhibition of KRas-mediated phosphorylation of ERK (Cisbio HTRF pERK), A549 cells; type: cell-based; conditions: Homo sapiens; for inhibition at 0.1 µM: single point at 100 nM, 3 hrs compound incubation; for IC50: A549, 3 h, 3 hr compound incubation
[10] = TR-FRET displacement, KRas G12V
[11] = TR-FRET displacement, KRas G12R
[12] = TR-FRET displacement, KRas G12D

Compound | IC50 [3, 10] [nM] | IC50 ([4]; Cisbio pERK HTRF) [nM] | IC50 [5, 11] [nM] | IC50 ([6]; Cisbio pERK HTRF) [nM] | IC50 [8, 12] [nM] | inhibition at 0.1 µM [1] [%] | inhibition at 0.1 µM [2] [%] | inhibition at 0.1 µM [4] [%] | inhibition at 0.1 µM [6] [%] | inhibition at 0.1 µM [7] [%] | inhibition at 0.1 µM [9] [%] | further results
CCc1c(F)ccc2cc(O)cc(N3CCc4c(nc(OC[C@@]56CCCN5C[C@H](F)C6)nc4N4CCCn5nc(C(=O)N6CC7CNC(C7)C6)cc5C4)C3)c12 (stereo partly drawn) [Example 234, 3,6-diazabicyclo[3.2.1]octan-3-yl(5-(7-(8-ethyl-7-fluoro-3-hydroxynaphthalen-1-yl)-2-(((2R,7aS)-2-fluorohexahydro-1H-pyrrolizin-7a-yl)methoxy)-5,6,7,8-tetrahydropyrido[3,4-d]pyrimidin-4-yl)-5,6,7,8-tetrahydro-4H-pyrazolo[1,5-a][1,4]diazepin-2-yl)methanone] | < 2 | 1560 | 4 | 52 | < 2 | -4 | -28 | 22 | 34 | 14 | 9 | 
CCc1c(F)ccc2cc(O)cc(N3CCc4c(nc(OC[C@@]56CCCN5C[C@H](F)C6)nc4N4CCCn5nc(CN(C)S(=O)(=O)NC)cc5C4)C3)c12 [Example 237, 7-(8-ethyl-7-fluoro-3-hydroxy-1-naphthyl)-2-(((2R,7aS)-2-fluorotetrahydro-1H-pyrrolizin-7a(5H)-yl)methoxy)-4-(2-((methylsulfamoyl)methylamino)methyl-7,8-dihydro-4H-pyrazolo[1,5-a][1,4]diazepin-5(6H)-yl)-6,8-dihydro-5H-pyrido[3,4-d]pyrimidine] | 13 | 1640 | 19 | 639 | 7 | -16 | 7 | 22 | 10 | 5 | 30 | 
CCc1c(F)ccc2cc(O)cc(N3CCc4c(nc(OC[C@@]56CCCN5C[C@H](F)C6)nc4N4CCCc5nn(C6CC6)cc5C4)C3)c12 [Example 239, 4-(4-(2-cyclopropyl-7,8-dihydropyrazolo[4,3-c]azepin-5(2H,4H,6H)-yl)-2-(((2R,7aS)-2-fluorohexahydro-1H-pyrrolizin-7a-yl)methoxy)-5,6-dihydropyrido[3,4-d]pyrimidin-7(8H)-yl)-5-ethyl-6-fluoronaphthalen-2-ol] | 62 | 4100 | 21 | 3140 | 57 | 11 | -8 | -8 | 6 | -5 | -9 | 
CCc1c(F)ccc2cc(O)cc(N3CCc4c(nc(OC[C@@]56CCCN5C[C@H](F)C6)nc4N4CCCCC(COCC(=O)NC)C4)C3)c12 (stereo partly drawn) [Example 245, 2-((1-(7-(8-ethyl-7-fluoro-3-hydroxynaphthalen-1-yl)-2-(((2R,7aS)-2-fluorohexahydro-1H-pyrrolizin-7a-yl)methoxy)-5,6,7,8-tetrahydropyrido[3,4-d]pyrimidin-4-yl)azepan-3-yl)methoxy)-N-methylacetamide] | 8 | 1640 | 9 | 1460 | 13 | 12 | 5 | 15 | 12 | 10 | 4 | 
CCc1c(F)ccc2cc(OP(C)(C)=O)cc(N3CCc4c(nc(OC[C@@]56CCCN5C[C@H](F)C6)nc4N4CCCn5nc(NC)cc5C4)C3)c12 [Example 446, 5-ethyl-6-fluoro-4-(2-(((2R,7aS)-2-fluorohexahydro-1H-pyrrolizin-7a-yl)methoxy)-4-(2-(methylamino)-7,8-dihydro-4H-pyrazolo[1,5-a][1,4]diazepin-5(6H)-yl)-5,6-dihydropyrido[3,4-d]pyrimidin-7(8H)-yl)naphthalen-2-yl dimethylphosphinate] |  |  |  |  |  | 27 |  | 13 | 21 | 0 |  | IC50 [3]: 9 nM; IC50 [5]: 3 nM; IC50 [8]: 12 nM
CCc1c(F)ccc2cc(O)cc(N3CCc4c(nc(OC[C@@]56CCCN5C[C@H](F)C6)nc4N4CCCn5nc(C(=O)N6CC[C@H]7CC[C@@H]6C7)cc5C4)C3)c12 [Example 617, ((1R,5R)-2-azabicyclo[3.2.1]octan-2-yl)(5-(7-(8-ethyl-7-fluoro-3-hydroxynaphthalen-1-yl)-2-(((2R,7aS)-2-fluorotetrahydro-1H-pyrrolizin-7a(5H)-yl)methoxy)-5,6,7,8-tetrahydropyrido[3,4-d]pyrimidin-4-yl)-5,6,7,8-tetrahydro-4H-pyrazolo[1,5-a][1,4]diazepin-2-yl)methanone] |  |  |  |  |  |  |  |  |  |  |  | IC50 [1]: 40 nM; IC50 ([2]; NCI-H358, 3 h, 3 hr compound incubation): 8 nM; IC50 [4]: 15 nM; IC50 [6]: 13 nM; IC50 [7]: 115 nM; IC50 [9]: 27 nM

Further lines, with some results ahead:

IC50 [3, 10] [nM] | IC50 ([4]; Cisbio pERK HTRF) [nM] | IC50 [5, 11] [nM] | IC50 ([6]; Cisbio pERK HTRF) [nM] | IC50 [8, 12] [nM] | Compound | inhibition at 0.1 µM [1] [%] | inhibition at 0.1 µM [2] [%] | inhibition at 0.1 µM [4] [%] | inhibition at 0.1 µM [6] [%] | inhibition at 0.1 µM [7] [%] | inhibition at 0.1 µM [9] [%] | further results
 | 124 |  | 161 |  | CCc1c(F)ccc2cc(O)cc(N3CCc4c(nc(OC[C@@]56CCCN5C[C@H](F)C6)nc4N4CCOCC5(CCO5)C4)C3)c12 (stereo partly drawn) [Example 249, 5-ethyl-6-fluoro-4-(2-(((2R,7aS)-2-fluorohexahydro-1H-pyrrolizin-7a-yl)methoxy)-4-(1,6-dioxa-9-azaspiro[3.6]decan-9-yl)-5,6-dihydropyrido[3,4-d]pyrimidin-7(8H)-yl)naphthalen-2-ol] | 53 | 70 | 21 | 1 | 10 | 35 | 
21 |  | 20 |  | 8 | CCc1c(F)ccc2cc(O)cc(N3CCc4c(nc(OC[C@@]56CCCN5C[C@H](F)C6)nc4N4CCCn5nc(N(C)S(N)(=O)=O)cc5C4)C3)c12 [Example 291, 7-(8-ethyl-7-fluoro-3-hydroxy-1-naphthyl)-2-(((2R,7aS)-2-fluorotetrahydro-1H-pyrrolizin-7a(5H)-yl)methoxy)-4-(2-((sulfamoyl)methylamino)-7,8-dihydro-4H-pyrazolo[1,5-a][1,4]diazepin-5(6H)-yl)-6,8-dihydro-5H-pyrido[3,4-d]pyrimidine] | 4 | 20 |  |  | 12 | 23 | 
4 |  | < 2 | 1640 | 6 | CCc1c(F)ccc2cc(O)cc(N3CCc4c(nc(OC[C@@]56CCCN5C[C@H](F)C6)nc4N4CCCCC(CC(=O)N(C)C)C4)C3)c12 (stereo partly drawn) [Example 345, 2-(1-(7-(8-ethyl-7-fluoro-3-hydroxynaphthalen-1-yl)-2-(((2R,7aS)-2-fluorohexahydro-1H-pyrrolizin-7a-yl)methoxy)-5,6,7,8-tetrahydropyrido[3,4-d]pyrimidin-4-yl)azepan-3-yl)-N,N-dimethylacetamide] | -9 | 13 |  |  | 5 | 12 | 
< 2 | 193 | 2 | 117 | 3 | CCc1c(F)ccc2cc(O)cc(N3CCc4c(nc(OC[C@@]56CCCN5C[C@H](F)C6)nc4N4CCCn5nccc5C4)C3)c12 [Example 418, 4-(4-(7,8-dihydro-4H-pyrazolo[1,5-a][1,4]diazepin-5(6H)-yl)-2-(((2R,7aS)-2-fluorohexahydro-1H-pyrrolizin-7a-yl)methoxy)-5,6-dihydropyrido[3,4-d]pyrimidin-7(8H)-yl)-5-ethyl-6-fluoronaphthalen-2-ol] |  |  |  |  |  |  | IC50 ([1]; Cisbio pERK HTRF): 375 nM; IC50 ([7]; Cisbio pERK HTRF): 787 nM; IC50 ([9]; Cisbio pERK HTRF): 236 nM
9 | 7510 | 13 | > 10000 | 20 | CCc1c(F)ccc2cc(O)cc(N3CCc4c(nc(N5CC(C)(N)C5)nc4N4CCCC5(C4)NC(=O)NC5=O)C3)c12 (stereo not shown) [Example 488, 7-(2-(3-amino-3-methylazetidin-1-yl)-7-(8-ethyl-7-fluoro-3-hydroxynaphthalen-1-yl)-5,6,7,8-tetrahydropyrido[3,4-d]pyrimidin-4-yl)-1,3,7-triazaspiro[4.5]decane-2,4-dione] | 14 |  | 5 | 13 | -1 |  | 
